Source: patent publication US20250144186A1, “NOVEL THERAPEUTIC USES OF GARDNERELLA ENDOLYSINS” (priority 2022, published 2025)
Converted amounts (≈) assume the structure as drawn. Where two headings read alike, the source gives them in different places.

Experiments:
All Gardnerella = assay: MIC assessment in suspension, panel of 22 strains; type: cell-based, Gardnerella spp.
Method: (§1) The minimum inhibitory concentration (MIC), which is a standard measure of the activity of antimicrobials, was determined according to the Clinical and Laboratory Standards Institute protocol (2018) Methods for Antimicrobial Susceptibility Testing of Anaerobic Bacteria (Carpenter et al., 2018). […] Controls for growth in the absence of antimicrobials were also included. OD600 was recorded by a microplate reader (Tecan, Grodig, Austria) after incubation at 37° C. for 48 h or, for some fast-growing strains, after incubation for 24 h. Absence of growth was defined as OD600≤0.14. […] MIC readout and MBC99.5 spotting were performed after 72 h incubation for H2B10B11.
(§2) However, topical intravaginal antibiotic administration is recommended for BV therapy, which allows to reach concentrations of active ingredients in the mg/mL range. […] Abbreviations: n.d., not determined; SJHB, St. Jan Hospital Bruges.
(§3) MIC90 is defined as the MIC value for 90% of the tested strains. For PM-477 (H2B10), the resistance breakpoint is not defined, therefore a “% resistant” is not defined (n.d.).

Gardnerella swidsinskii = assay: microbe, parasite or virus in culture; type: cell-based; conditions: Gardnerella swidsinskii
Method: as §1, §2, §3

Gardnerella vaginalis = assay: microbe, parasite or virus in culture; type: cell-based; conditions: Gardnerella vaginalis
Method: as §1, §2, §3

Gardnerella piotii = assay: MIC / MBC99.5 assessment in suspension; type: cell-based; conditions: Gardnerella piotii; for MIC: read-out: MIC
Method: as §1, §2, §3

Gardnerella leopoldii = assay: MIC / MBC99.5 assessment in suspension; type: cell-based; conditions: Gardnerella leopoldii; for MIC: read-out: MIC; for MBC: read-out: MBC99.5
Method: as §1, §2, §3

[1] = test system: Gardnerella strains from vaginal swabs of BV patients; assay: MIC and MBC99.5 on 18 in-house BV patient isolates; type: cell-based, Gardnerella spp.
Method: as §1

[2] = test system: Gardnerella type strains and patient isolates; assay: MIC and MBC99.5 on about 100 type strains and patient isolates of various origins; type: cell-based, Gardnerella spp.
Method: as §1
MIC and MBC99.5 of H2B10B11 on a panel of about 100 Gardnerella type strains and patient isolates from various geographic origins were determined following the CLSI protocol. […] For a subset of fast-growing strains thereof and for some additional strains, MIC determination was performed after 48 h of incubation to bridge the results to earlier assessed MIC values (FIG. 6). In total, MIC was determined for 104 different strains (the MIC of 15 strains was determined both, after 48 h and 72 h). […] The number of strains in each group is stated on the right site of the graph.

[3] = G. swidsinskii (BV7) UGent BV7.1, suspension
[4] = G. swidsinskii (Gs23) GS 10234, suspension
[5] = G. swidsinskii (Gs24) GS 9838-1(T), suspension
[6] = read-out: MBC99.5, G. swidsinskii (BV7) UGent BV7.1
[7] = read-out: MBC99.5, G. swidsinskii (Gs23) GS 10234
[8] = read-out: MBC99.5, G. swidsinskii (Gs24) GS 9838-1(T)
[9] = ATCC14018, 24 h, read-out: MBC99.5, G. vaginalis (Gv9) ATCC 14018(T), reduces CFU by 99.5% within 24 h
[10] = ATCC14018, G. vaginalis (Gv9) ATCC 14018(T), suspension
[11] = G. vaginalis (BV50) UGent BV50.1, suspension
[12] = G. vaginalis (FB049) UGent FB049-01, suspension
[13] = read-out: MBC99.5, G. vaginalis (BV111) UGent BV111.5
[14] = read-out: MBC99.5, G. vaginalis (FB049) UGent FB049-01
[15] = G. piotii (FB041) UGent FB041, suspension
[16] = G. piotii (Gp17) UGent 18.01(T)
[17] = G. piotii (Gp17) UGent 18.01(T), suspension
[18] = G. piotii (Gp22) UGent 21.28, suspension
[19] = G. piotii (P80275) UGent P80275
[20] = G. piotii (P80275) UGent P80275, suspension
[21] = G. leopoldii (BV13) UGent BV13.2, suspension
[22] = G. leopoldii (BV13) UGent BV13.2
[23] = G. leopoldii (Gl11) UGent 09.48, suspension
[24] = G. leopoldii (Gl11) UGent 09.48
[25] = MIC after 72 h, unpaired t-test of log2-transformed data

## CCC[C@@H]1C[C@@H](C(=O)N[C@@H]([C@H]2O[C@H](SC)[C@H](O)[C@@H](O)[C@H]2O)[C@H](C)Cl)N(C)C1 [CLI, clindamycin]
All Gardnerella; N=22, resistance ≥32 μg/mL MDZ, ≥8 μg/mL CLI
  N resistant: 0
All Gardnerella; N=22 strains
  MIC Range: <0.06-2^ μg/mL
All Gardnerella; N=22 strains, read-out: MIC90
  MIC90: 0.5 µg/mL (≈ 1.18 µM)
Gardnerella swidsinskii
  MIC: 0.125 µg/mL (≈ 0.294 µM)
  MIC90: 0.5 µg/mL (≈ 1.18 µM)
Gardnerella swidsinskii; [3]
  MIC: 0.5 µg/mL (≈ 1.18 µM)
Gardnerella swidsinskii; [4]
  MIC: 0.25 µg/mL (≈ 0.588 µM)
Gardnerella swidsinskii; [5]
  MIC: < 0.06 µg/mL
Gardnerella swidsinskii; N=4 strains
  MIC Range: <0.06 to 0.5 µg/mL
Gardnerella swidsinskii; [6]
  MBC: 1 µg/mL (≈ 2.35 µM)
Gardnerella swidsinskii; read-out: MBC99.5, G. swidsinskii (BV139) UGent BV139.3
  MBC: 0.25 µg/mL (≈ 0.588 µM)
Gardnerella swidsinskii; [7]
  MBC: 0.25 µg/mL (≈ 0.588 µM)
Gardnerella swidsinskii; [8]
  MBC: 0.5 µg/mL (≈ 1.18 µM)
Gardnerella vaginalis
  MIC90: 0.5 µg/mL (≈ 1.18 µM)
Gardnerella vaginalis; [9]
  MBC: 0.5 µg/mL (≈ 1.18 µM)
Gardnerella vaginalis; [10]
  MIC: 0.25 µg/mL (≈ 0.588 µM)
Gardnerella vaginalis; [11]
  MIC: 0.25 µg/mL (≈ 0.588 µM)
Gardnerella vaginalis; [12]
  MIC: 0.5 µg/mL (≈ 1.18 µM)
Gardnerella vaginalis; N=8 strains
  MIC Range: <0.06 to 0.5 µg/mL
Gardnerella vaginalis; read-out: MBC99.5, G. vaginalis (BV50) UGent BV50.1
  MBC: 0.5 µg/mL (≈ 1.18 µM)
Gardnerella vaginalis; [13]
  MBC: 2 µg/mL (≈ 4.71 µM)
Gardnerella vaginalis; [14]
  MBC: 1 µg/mL (≈ 2.35 µM)
Gardnerella piotii; G. piotii (BV049) UGent BV049.1
  MBC: 0.125 µg/mL (≈ 0.294 µM)
Gardnerella piotii; G. piotii (BV140) UGent BV140.2, suspension
  MIC: 2 µg/mL (≈ 4.71 µM)
Gardnerella piotii; G. piotii (BV154) UGent BV154.1
  MBC: 0.5 µg/mL (≈ 1.18 µM)
Gardnerella piotii; G. piotii (BV154) UGent BV154.1, suspension
  MIC: 0.5 µg/mL (≈ 1.18 µM)
Gardnerella piotii; G. piotii (FB041) UGent FB041
  MBC: 2 µg/mL (≈ 4.71 µM)
Gardnerella piotii; [15]
  MIC: 1 µg/mL (≈ 2.35 µM)
Gardnerella piotii; [16]
  MBC: 1 µg/mL (≈ 2.35 µM)
Gardnerella piotii; [17]
  MIC: 0.5 µg/mL (≈ 1.18 µM)
Gardnerella piotii; G. piotii (Gp22) UGent 21.28
  MBC: 0.5 µg/mL (≈ 1.18 µM)
Gardnerella piotii; [18]
  MIC: 0.25 µg/mL (≈ 0.588 µM)
Gardnerella piotii; [19]
  MBC: 1 µg/mL (≈ 2.35 µM)
Gardnerella piotii; [20]
  MIC: 0.5 µg/mL (≈ 1.18 µM)
Gardnerella piotii; N=7, resistance ≥32 μg/mL MDZ, ≥8 μg/mL CLI
  N resistant: 0
Gardnerella piotii; N=7 strains
  MIC Range: 0.125-2^ μg/mL
Gardnerella piotii; N=7 strains, read-out: MIC90
  MIC90: 2 µg/mL (≈ 4.71 µM)
Gardnerella piotii; G. piotii (BV049) UGent BV049.1, suspension
  MIC: 0.125 µg/mL (≈ 0.294 µM)
Gardnerella piotii; G. piotii (BV140) UGent BV140.2
  MBC: 64 µg/mL (≈ 151 µM)
Gardnerella leopoldii; [21]
  MIC: 0.5 µg/mL (≈ 1.18 µM)
Gardnerella leopoldii; [22]
  MBC: 1 µg/mL (≈ 2.35 µM)
Gardnerella leopoldii; G. leopoldii (BV217) UGent BV217.1, suspension
  MIC: 0.5 µg/mL (≈ 1.18 µM)
Gardnerella leopoldii; G. leopoldii (BV217) UGent BV217.1
  MBC: 1 µg/mL (≈ 2.35 µM)
Gardnerella leopoldii; [23]
  MIC: 0.5 µg/mL (≈ 1.18 µM)
Gardnerella leopoldii; [24]
  MBC: 1 µg/mL (≈ 2.35 µM)
Gardnerella leopoldii; N=3, resistance ≥32 μg/mL MDZ, ≥8 μg/mL CLI
  N resistant: 0
Gardnerella leopoldii; N=3 strains
  MIC Range: 0.5 µg/mL (≈ 1.18 µM)
Gardnerella leopoldii; N=3 strains, read-out: MIC90
  MIC90: 0.5 µg/mL (≈ 1.18 µM)

## CCS(=O)(=O)CCn1c([N+](=O)[O-])cnc1C [TDZ, tinidazole]
Gardnerella swidsinskii; [3]
  MIC: 128 µg/mL (≈ 518 µM)
Gardnerella swidsinskii; [4]
  MIC: > 128 µg/mL
Gardnerella swidsinskii; [5]
  MIC: > 128 µg/mL
Gardnerella swidsinskii; [6]
  MBC: > 128 µg/mL
Gardnerella swidsinskii; [7]
  MBC: > 128 µg/mL
Gardnerella swidsinskii; [8]
  MBC: > 128 µg/mL
Gardnerella vaginalis; [9]
  MBC: > 128 µg/mL
Gardnerella vaginalis; [10]
  MIC: 128 µg/mL (≈ 518 µM)
Gardnerella vaginalis; [11]
  MIC: 64 µg/mL (≈ 259 µM)
Gardnerella vaginalis; [12]
  MIC: 8 µg/mL (≈ 32.4 µM)
Gardnerella vaginalis; G. vaginalis (FB061) UGent FB061-03, suspension, read-out: MIC
  MIC: 4 µg/mL (≈ 16.2 µM)
Gardnerella vaginalis; G. vaginalis (FB061) UGent FB061-03, read-out: MBC99.5
  MBC: 32 µg/mL (≈ 129 µM)
Gardnerella vaginalis; G. vaginalis (Gv1) UGent 09.07, suspension, read-out: MIC
  MIC: > 128 µg/mL
Gardnerella vaginalis; G. vaginalis (Gv1) UGent 09.07, read-out: MBC99.5
  MBC: > 128 µg/mL
Gardnerella vaginalis; G. vaginalis (Gv5) UGent 09.01, suspension, read-out: MIC
  MIC: 4 µg/mL (≈ 16.2 µM)
Gardnerella vaginalis; G. vaginalis (Gv5) UGent 09.01, read-out: MBC99.5
  MBC: 8 µg/mL (≈ 32.4 µM)
Gardnerella vaginalis; G. vaginalis (Gv8) UGent 25.49, suspension, read-out: MIC
  MIC: 4 µg/mL (≈ 16.2 µM)
Gardnerella vaginalis; G. vaginalis (Gv8) UGent 25.49, read-out: MBC99.5
  MBC: 32 µg/mL (≈ 129 µM)
Gardnerella vaginalis; [13]
  MBC: 128 µg/mL (≈ 518 µM)
Gardnerella vaginalis; [14]
  MBC: 64 µg/mL (≈ 259 µM)
Gardnerella piotii; G. piotii (FB041) UGent FB041
  MBC: 128 µg/mL (≈ 518 µM)
Gardnerella piotii; [15]
  MIC: 64 µg/mL (≈ 259 µM)
Gardnerella piotii; [16]
  MBC: > 128 µg/mL
Gardnerella piotii; [17]
  MIC: 64 µg/mL (≈ 259 µM)
Gardnerella piotii; G. piotii (Gp22) UGent 21.28
  MBC: > 128 µg/mL
Gardnerella piotii; [18]
  MIC: > 128 µg/mL
Gardnerella piotii; [19]
  MBC: 128 µg/mL (≈ 518 µM)
Gardnerella piotii; [20]
  MIC: 32 µg/mL (≈ 129 µM)
Gardnerella leopoldii; [21]
  MIC: > 128 µg/mL
Gardnerella leopoldii; [22]
  MBC: 128 µg/mL (≈ 518 µM)
Gardnerella leopoldii; [23]
  MIC: 128 µg/mL (≈ 518 µM)
Gardnerella leopoldii; [24]
  MBC: > 128 µg/mL

B1: H2B10B11: recombinant endolysin, SEQ ID NO: 37; differs from H2B10 in one amino acid exchange in one of the binding domains (protein)
chain: MSKRGIDVSEWQGDIDFNAVKASGVEFVIIRAGYGIGCKDKWFEQNYRKAKTCGLDVGAYWYSYANSGFEAAEEAQSCVNMLSGKSFEYPVYFDLEEKSQLNRGRAFCDSLITGFCNKLESCGYYAGFYTSLSTANNLVSAHVRNRYALWIAQWNTHCSYQGSYGLWQYSSSGSVPGVAGRVDMDYAYVDYPSIIKNVGLNGYKNGGSYTAPQISSIDEVAREVINGDWGNGNERKQRLTSAGYDYASVQNKVNELLGVKAYRKSVDELAREVIRGTWGNGSTRKQRLTQAGYDYDAVQKRVNELL
modifications: H2B10B11
[1]; 18 in-house BV patient isolates
  median MBC99.5: 8 µg/mL
[1]; 18 in-house BV patient isolates, H2B10B11 read after 72 h
  median MIC: 2 µg/mL
[1]; panel of 18 BV patient isolates
  MIC90: 4.4 µg/mL
[1]; panel of n=18 BV patient isolates
  Lytic effect on MDZ-resistant Gardnerella isolates (FIG. 5): maintained
[1]; the 10 MDZ-resistant isolates of the panel of 18
  inhibiting concentration (MIC): 4 to 8 µg/mL
[2]
  Susceptibility of BV patient isolates of various origins (FIG. 6): susceptible
[2]; 15 strains determined both after 48 h and 72 h
  MIC and MBC99.5 values, readout after 48 h compared to 72 h: one concentration lower
[2]; [25]
  difference between the MICs of G. vaginalis and G. leopoldii/swidsinskii: no significant difference
  difference in susceptibility between isolates from African and European BV patients: no significant difference
